Data on twelve compounds can be found in ChEMBL document CHEMBL1201862, “PubChem BioAssay data set” (2004).

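These data come from cells grown in 96-well plates and exposed to compound for 48 hours at five concentrations. GI50: concentration for 50% inhibition of growth.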 Active and inactive are the calls of the source. Rule as the data show it: active = GI50 up to about 1.1 µM and inactive = higher. Some results are limits rather than exact numbers.

Test systems include OVCAR-8; M14; UACC-62; TK-10; EKVX; UO-31; HCT-116; SK-OV-3; HCC 2998; OVCAR-3; SF-295; A549; SF-539; HCT-15; KM12; Malme-3M; NCI-H226; OVCAR-5.
Common to all, as to experiment: inhibition of tumour cell growth, NCI panel, 48 h

For the compound `COc1ccc(CNC2=C(NC(C)=O)C(=O)c3ccccc3C2=O)cc1`, the GI50 in the assay with OVCAR-8 was 16.8 µM (inactive); in the assay on M14 it was 19.4 µM (inactive); in the assay with UACC-62 it was 7.73 µM (inactive); in the assay with TK-10 it was 10.6 µM (inactive); in the assay on EKVX, 14.7 µM (inactive); with UO-31, 9.53 µM (inactive). Besides, the GI50 is 5.09 µM (inactive) in the assay with HCT-116; 19.5 µM (inactive) in the assay on SK-OV-3; 48.4 µM (inactive) in the assay on HCC 2998; 8.07 µM (inactive) in the assay on OVCAR-3; 17.8 µM (inactive) with SF-295; 17.3 µM (inactive) with A549. The GI50 with SF-539 was 7.43 µM (inactive); in the assay on HCT-15, 13.1 µM; with KM12, 23 µM (inactive); in the assay with Malme-3M, 8.32 µM (inactive); in the assay with NCI-H226, 12.6 µM (inactive).
For the compound `COc1ccc(C(=O)/C(=N/Nc2ccccc2)c2ccc(OC)cc2)cc1`, the GI50 in the assay on OVCAR-8 is > 100 µM (inactive); in the assay on UACC-62, 13.3 µM (inactive); in the assay with TK-10, > 100 µM (inactive); in the assay on EKVX, > 100 µM (inactive); with UO-31, > 100 µM (inactive); in the assay on HCT-116 it was > 100 µM (inactive). Moreover, the GI50 with SK-OV-3 is 61.2 µM (inactive); in the assay with OVCAR-5, > 100 µM (inactive); with HCC 2998, > 100 µM (inactive); in the assay with SF-295, > 100 µM (inactive); in the assay on A549, > 100 µM (inactive); with SF-539 it was > 100 µM (inactive). Also, the GI50 with HCT-15 was 8.55 µM; in the assay on KM12, 10.6 µM (inactive); in the assay on Malme-3M, > 100 µM (inactive); in the assay with NCI-H226 it was > 100 µM (inactive).
Take `CCC(=O)C12OC3OC(C)(C)OC3C1OC(C)(C)O2` (stereo unspecified): the GI50 in the assay on OVCAR-8, in the assay on M14, in the assay with UACC-62, with TK-10, in the assay with EKVX and in the assay on UO-31 was > 100 µM (inactive) throughout. The GI50 in the assay on HCT-116, in the assay with SK-OV-3, in the assay on OVCAR-5, with HCC 2998, in the assay on OVCAR-3 and in the assay on SF-295 was > 100 µM (inactive) each time. The GI50 is > 100 µM (inactive) in the assay on A549; > 100 µM (inactive) in the assay with SF-539; > 100 µM (inactive) with KM12; 9.44 µM (inactive) in the assay on Malme-3M; > 100 µM (inactive) in the assay with NCI-H226.
For the compound `CC(=O)Oc1cc2c(cc1OC(C)=O)C1(C)CCC2(C)c2cc(OC(C)=O)c(OC(C)=O)cc21`, the GI50 in the assay on OVCAR-8 is 15 µM (inactive); in the assay with M14 it was 18.3 µM (inactive); with UACC-62, 13.2 µM (inactive); in the assay on TK-10, 26.5 µM (inactive); with EKVX it was 35.8 µM (inactive); in the assay on UO-31 it was 23.4 µM (inactive). For the same compound, the GI50 is 29.2 µM (inactive) with SK-OV-3; 28.4 µM (inactive) in the assay on OVCAR-5; 25.1 µM (inactive) with HCC 2998; 10.2 µM (inactive) with OVCAR-3; 24.5 µM (inactive) in the assay with SF-295; 34 µM (inactive) in the assay with A549. The GI50 with HCT-15 is 6.92 µM; with KM12 it was 11.6 µM (inactive); with Malme-3M it was 13 µM (inactive).
With `COc1ccc(/C=C2\CCC(C)(CN(C)C)C2=O)cc1OC` (stereo unspecified), the GI50 was > 100 µM (inactive) in the assay with OVCAR-8; > 100 µM (inactive) in the assay with M14; > 100 µM (inactive) in the assay with UACC-62; > 100 µM (inactive) in the assay with TK-10; 32.8 µM (inactive) in the assay with EKVX; > 100 µM (inactive) in the assay on UO-31. The GI50 with HCT-116, in the assay on OVCAR-5, in the assay with HCC 2998, in the assay on OVCAR-3, with SF-295 and with A549 was > 100 µM (inactive) in each case. The GI50 was > 100 µM (inactive) in the assay on SF-539; over 100 µM with HCT-15; > 100 µM (inactive) in the assay with KM12; > 100 µM (inactive) with Malme-3M; > 100 µM (inactive) in the assay with NCI-H226.
In the case of `O=C1CCCC1NC(=O)C(F)(F)F` (stereo unspecified), the GI50 with OVCAR-8, in the assay with M14, in the assay on UACC-62, in the assay with TK-10, with EKVX and in the assay with UO-31 was > 100 µM (inactive) in each case. In addition, the GI50 in the assay on HCT-116, with SK-OV-3, in the assay with OVCAR-5, with OVCAR-3, in the assay on SF-295 and with A549 was > 100 µM (inactive) each time. In addition, the GI50 in the assay on SF-539 is > 100 µM (inactive); in the assay with KM12, > 100 µM (inactive); with Malme-3M it was 0.182 µM (active); with NCI-H226, > 100 µM (inactive).
Take `N#CCN1CCOCCOCCN(CC#N)CCOCCOCC1`: the GI50 in the assay with OVCAR-8, in the assay on M14, in the assay on UACC-62, with TK-10, in the assay on EKVX and in the assay with UO-31 was > 100 µM (inactive) in each case. The GI50 with HCT-116, in the assay with OVCAR-5, with HCC 2998, with OVCAR-3, with SF-295 and in the assay on A549 was > 100 µM (inactive) throughout. Also, the GI50 in the assay with SF-539 is > 100 µM (inactive); in the assay with HCT-15, over 100 µM; in the assay on Malme-3M it was > 100 µM (inactive); with NCI-H226, > 100 µM (inactive).
For `CC(C)N1CN(C(C(=O)N[C@@H]2C(=O)N3C2SC(C)(C)C3C(=O)O)c2ccccc2)CSC1=S` (stereo partly specified), the GI50 with OVCAR-8, in the assay with M14, with UACC-62, in the assay with TK-10, with EKVX and with UO-31 was > 100 µM (inactive) each time. The GI50 with HCT-116, in the assay on SK-OV-3, with OVCAR-5, in the assay on OVCAR-3, in the assay on SF-295 and with SF-539 was > 100 µM (inactive) in each case. For the same compound, the GI50 is 22.1 µM in the assay with HCT-15, > 100 µM (inactive) in the assay on KM12 and > 100 µM (inactive) in the assay on Malme-3M.
For the compound `CNC(=O)CN(CC(=O)O)C(=O)NC`, the GI50 in the assay on OVCAR-8, with M14, in the assay with UACC-62, in the assay on TK-10, in the assay with EKVX and in the assay with UO-31 was > 100 µM (inactive) each time. The GI50 with SK-OV-3, in the assay with OVCAR-5, in the assay on HCC 2998, in the assay with OVCAR-3, in the assay with SF-295 and in the assay with A549 was > 100 µM (inactive) in each case. The GI50 in the assay on SF-539 was > 100 µM (inactive); with HCT-15 it was over 100 µM; in the assay on KM12, > 100 µM (inactive); in the assay with Malme-3M it was > 100 µM (inactive).
For `CN1CCN(CN2C(=O)C3C4C=CC(C3C2=O)C2C3C(=O)N(CN5CCN(C)CC5)C(=O)C3C42)CC1` (stereo unspecified), the GI50 in the assay with OVCAR-8 was 17.7 µM (inactive); in the assay with M14, 16.4 µM (inactive); with UACC-62, 22.2 µM (inactive); with TK-10, 38 µM (inactive); with UO-31, 30.3 µM (inactive); with HCT-116, 16.5 µM (inactive). Further, the GI50 was 30.8 µM (inactive) in the assay with OVCAR-5; 34.7 µM (inactive) in the assay on HCC 2998; 21.4 µM (inactive) with OVCAR-3; 32.4 µM (inactive) with A549; 22.2 µM (inactive) in the assay on SF-539; 16.9 µM in the assay on HCT-15. In addition, in the assay on KM12, the GI50 is 20.1 µM (inactive).
With `COc1cccc(/C=C2\CCC(CCN(C)C)(C3=CCCC3)C2=O)c1` (stereo unspecified), the GI50 with OVCAR-8 is 17.3 µM (inactive); in the assay on M14, 14.4 µM (inactive); in the assay on UACC-62, 15.4 µM (inactive); in the assay on TK-10, 15.8 µM (inactive); in the assay on UO-31, 13.6 µM (inactive); in the assay on HCT-116, 13.8 µM (inactive). The GI50 with OVCAR-5 was 14.6 µM (inactive); with HCC 2998, 16.7 µM (inactive); in the assay on OVCAR-3, 17.3 µM (inactive); in the assay with SF-295, 17 µM (inactive); with A549, 16.1 µM (inactive); with SF-539, 16.1 µM (inactive). The GI50 in the assay on HCT-15 was 16.2 µM; in the assay with KM12 it was 17.2 µM (inactive); in the assay with Malme-3M it was 15.6 µM (inactive); in the assay with NCI-H226, 17.1 µM (inactive).
In the case of `COc1ccc(C2C(Cl)C(=O)N2n2cnc3ccccc3c2=O)cc1OC` (stereo unspecified), the GI50 in the assay on OVCAR-8 was > 100 µM (inactive); in the assay with M14, > 100 µM (inactive); with UACC-62, 74.1 µM (inactive); with TK-10, > 100 µM (inactive); in the assay with EKVX it was > 100 µM (inactive); with UO-31 it was 22.3 µM (inactive). The GI50 in the assay with HCT-116 was 53 µM (inactive); with SK-OV-3 it was 76.4 µM (inactive); in the assay on OVCAR-5, > 100 µM (inactive); with HCC 2998 it was > 100 µM (inactive); in the assay with OVCAR-3, 44.6 µM (inactive); with SF-295, > 100 µM (inactive). Besides, the GI50 with A549 is > 100 µM (inactive); in the assay with HCT-15, over 100 µM; in the assay on KM12 it was > 100 µM (inactive); in the assay with Malme-3M, > 100 µM (inactive); with NCI-H226, 30.5 µM (inactive).
